From US20130252890A1, “6,7-DIHYDRO-5H-BENZO[7]ANNULENE DERIVATIVES, PROCESS FOR PREPARATION THEREOF, PHARMACEUTICAL PREPARATIONS COMPRISING THEM, AND THE USE THEREOF FOR PRODUCTION OF MEDICAMENTS” (BAYER INTELLECTUAL PROPERTY GMBH, priority 2010, published 2013)
Entries after “also recorded” stand apart in the source; their conditions may differ.

How the values were obtained:
[1] = system: peripheral cholesterol level; assay: Hepatic oestrogenicity in the ovariectomized adult rat (plasma cholesterol); format: in vivo; details: ovariectomized adult rats, s.c. daily for 6 days; cholesterol day 0 vs day 8
From the text: Substances with oestrogenic action influence the synthesis of various plasma proteins, of coagulation factors and fibrinolytic factors in the liver. […] In the present investigations, lowering of the peripheral cholesterol level is used as a surrogate parameter for analysis of the hepatic oestrogenicity of the claimed pharmacological compounds. Adult ovariectomized rats were, after a pause of 6-10 days, treated daily for 6 days with the substances by subcutaneous application. The plasma cholesterol levels were determined and compared before and after the respective treatment.

uterus = assay: Oestrogenic action - uterus growth test in the infantile rat; format: in vivo; details: sc, 72 h, s.c. 3 days, maximum at dose 0.1 mg/kg, relative to E2 0.3 μg/animal, read-out: maximum uterotropic action (% estradiol action) in the dose range from 0.03 to 3 mg/kg
Method: Both the uterus and the vagina show a weight increase that is dependent on oestrogenic efficacy, in infantile animals when they are treated with a substance with oestrogenic action. In the uterus, under oestrogenic action there is also proliferation and increase in height of the luminal epithelium.
Immature, intact rats (n=5-6 animals/group; body weight 40-50 g) receive the substance s.c. for 3 days (d1-d3). On day 4 (d4) the animals are killed with CO2. The uteri are removed and weighed. For histological assessment, a piece of uterus, preferably a uterine horn, is fixed in formaldehyde and embedded in paraffin. The stimulation of the organ weights (relative to mg/100 g body weight) and the height of the epithelium are shown as percentage stimulation in comparison with the reference compound 17β-estradiol (E2). (Substitution dose of E2 0.3 μg/animal).

endometriosis lesions = assay: Endometriosis model in the rat (autologous transplantation); format: in vivo
From the text: Using intact adult female rats, experimental endometriosis was induced in the autologous transplantation model based on Vernon M. W. and Wilson E. A., 1985 (Fertil Steril. 44(5):684-694). A uterine horn was removed from animals that were exclusively in oestrus, the myometrium was separated from the endometrium and biopsies with dimensions of 4×4 mm were obtained from the endometrial tissue. Two uterine fragments were transplanted onto the inside of the abdominal wall (peritoneum) and two uterine fragments were transplanted onto the mesenterium of the same animal (4 fragments per animal). After 21 days the animals with endometriosis were laparotomized, and the size of the transplants was determined. The animals were treated after laparotomy and then daily in the morning with the stated dosages of the selected claimed substances by subcutaneous administration. Finally, 28 days after the start of treatment (49 days after transplantation), all the animals were laparotomized again and the size of the lesion was measured and was correlated with the size before the start of treatment.

oestrogen receptor (ER) = target: T1, oestrogen receptor (ER) (Homo sapiens, UniProt P03372); assay: Anti-oestrogenic action in MVLN cells (inhibition of estradiol-induced luciferase); format: cell-based; details: inhibition of estradiol-induced luciferase signal, value of Ex. 44 is a mean value, read-out: Antioestrogenic action in vitro: MVLN transactivation antagonism IC50
T1 construct: These MVLN cells express, along with the functional oestrogen receptor (ER), a reporter construct; endogenous in cells; host or cells: MVLN cells (MCF7 derivative carrying a luciferase reporter construct)
T1 sequence (P03372 1-595): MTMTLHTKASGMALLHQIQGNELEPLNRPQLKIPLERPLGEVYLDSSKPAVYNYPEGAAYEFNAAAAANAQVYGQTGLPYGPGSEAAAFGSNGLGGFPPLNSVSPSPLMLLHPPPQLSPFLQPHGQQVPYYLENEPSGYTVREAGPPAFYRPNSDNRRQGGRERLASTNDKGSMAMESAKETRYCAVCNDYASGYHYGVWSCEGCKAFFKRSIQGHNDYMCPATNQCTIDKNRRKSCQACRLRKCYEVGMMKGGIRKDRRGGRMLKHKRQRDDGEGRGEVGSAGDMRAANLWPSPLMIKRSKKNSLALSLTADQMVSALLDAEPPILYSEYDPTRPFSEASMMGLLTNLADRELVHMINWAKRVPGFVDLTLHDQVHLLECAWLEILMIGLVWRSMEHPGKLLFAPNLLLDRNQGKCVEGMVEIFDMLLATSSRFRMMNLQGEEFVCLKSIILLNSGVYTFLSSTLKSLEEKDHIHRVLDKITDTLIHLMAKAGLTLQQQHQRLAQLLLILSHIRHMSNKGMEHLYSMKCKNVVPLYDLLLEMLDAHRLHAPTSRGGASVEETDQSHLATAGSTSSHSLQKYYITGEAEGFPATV
In short: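 MVLN cells, MCF7 breast cancer derivatives carrying functional ER plus an ER-activated luciferase reporter, were treated with compounds in the presence of estradiol. Anti-oestrogenic activity taken as inhibition of the estradiol-induced luciferase signal.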

mammary gland = assay: Action on the mammary gland in the juvenile rat; format: in vivo; details: juvenile ovariectomized rats, 6 days
Method: The formation of secretory units in the mamma is dependent in particular on gestagens and oestrogens. […] To investigate the stimulating action of test compounds, animals are ovariectomized at the age of 21 days and after a treatment-free interval of 6 days treated either with a combination of the test compound and an oestrogen (for example 70 μg/kg E1) or a combination of the test compound and a gestagen (for example promegestone 0.3 mg/kg) in each case for a period of 6 days. To investigate the antagonistic potential of a test compound, the test compound is given for a period of 6 days together with an oestrogen (see above) and a gestagen (see above). Finally one of the abdominal-inguinal mammary glands is prepared and submitted to so-called whole-mount staining. The number of secretory units on an area of approx. 1.0 mm^2 serves as the end point (moreover, this can also vary according to requirements).

[2] = system: bone mass and uterus weight; assay: Antagonistic action on bone mass and uterus weight in hormonally intact rats; format: in vivo, Sprague-Dawley rats; details: adult hormonally intact rats, oral 1-10 mg/kg, 2 months
Method: Application was oral, in peanut oil/ethanol. The animals were killed on the day after the last application and the tibia and uteri were removed. The uteri were weighed, fixed and prepared for optional histological investigations. Bone density was determined on long bones by pQCT (quantitative computed tomography), once before the treatment, once on the day of autopsy. The variations for this parameter were shown correspondingly between these two reference points (values below 100 correspond to a decrease in bone mass density, values above 100 to an increase). The control group was a group of animals from which the ovaries had been removed (OVX) (due to ovariectomy, as expected there is a decrease in density of the trabecular bone in the measured range over the period of the experiment). All other animals underwent a SHAM-OP (a sham operation) (without the ovaries being removed) in addition to the application treatment. The changes in relative uterus weights served as the reference for the anti-oestrogenic action.

CN(CCCCCCC1=C(c2cc(F)cc(F)c2)CCCc2cc(O)ccc21)CCCCS(=O)(=O)CCCC(F)(F)F [Example 44, 8-(3,5-Difluorophenyl)-9-[6-(methyl{4-[(4,4,4-trifluorobutyl)sulphonyl]butyl}amino)hexyl]-6,7-dihydro-5H-benzo[7]annulen-3-ol]
hepatic oestrogenicity: lowering of the peripheral cholesterol level [1]: only observed at high dosage
Emax at 0.1 mg/kg (uterus): 6%
peripheral (blood) estradiol level of the treated animals (endometriosis lesions; animals of the FIG. 2C experiment (FIG. 2D)): does not lead to an increase in peripheral estradiol level above the physiological range; also recorded: None of the groups treated with example compound 44 in the stated dosages shows levels above or below the naturally occurring estradiol levels
reduction of lesion sizes, independent experiment (endometriosis lesions; rat, 0.3 mg/kg to 13 mg/kg, three dosages (FIG. 2C)): significant dose-dependent reduction of lesion sizes; also recorded: all three dosages lead to a significant reduction of the lesion
dosage with significant reduction in sizes of lesions (endometriosis lesions; rat, 28 days of treatment, 115 tested 0.1-1 mg/kg, 44 tested 0.3-10 mg/kg): ≥ 1 mg/kg
reduction of lesion size (endometriosis lesions; rat, s.c. daily, 4 weeks (FIG. 2A, FIG. 2B)): significant dose-dependent reduction of lesion size
IC50 (oestrogen receptor (ER)): 5.6 nM
induction of mammary gland differentiation (agonistic potential) (mammary gland; test compound alone with gestagen R5020 or alone with oestrogen E1): no induction of mammary gland differentiation significantly different from the group given excipients; also recorded: did not show any agonistic, inducing potential
formation of mammary secretory units induced by E1 and R5020 (mammary gland; test compound with oestrogen E1 and gestagen promegestone (R5020)): dose-dependent inhibition; also recorded: dose-dependent reduction of this effect
effect on relative uterus weight (anti-oestrogenic action) [2]: dose-dependent anti-oestrogenic action on the uterus; also recorded: dose-dependent decrease
trabecular bone mass density of the tibia [2]: not reduced; also recorded: does not show a significant decrease in bone mass density at any of the tested dosages
